Assays:
[1] = test system: EPO-induced JAK2 signal pathway; experiment: EPO-induced proliferation of UT-7 cells (JAK2 signal); assay type: cell-based, human; details: Homo sapiens, UT7; UT-7 cell proliferation, EPO 10 ng/mL, 72 hours; read-out: Inhibition activity IC50 on EPO-induced JAK2 signal pathway
Experimental: The cytokine EPO, i.e. erythropoietin, can promote the proliferation and division of erythroid progenitor cells, and the signal pathway induced by EPO coupling with its receptor is mediated by JAK2-STAT5.
Human promegakaryocytic leukemia cell line UT-7 was commercially available from Cell Resource Center, Institute of Basic Medicine, Chinese Academy of Medical Sciences. The culture medium was RPIM1640 containing 10% FBS, and EPO was added for a final concentration of 10 ng/mL.
The inhibition rate of the tested compound on EPO-induced cell proliferation was calculated using Microsoft Excel.
UT-7 cell line was inoculated in 96-well plate with flat bottom at 15000 cells per well, each well was added with 10 ng/mL of human recombinant EPO (Human EPO PEPROTECH 100-64-10UG), along with tested compound respectively for a final concentration of 0, 100, 1000 or 10000 nM. After culture at 37° C. and 5% CO2 for 72 hours, alamarBlue™ Cell Viability Reagent was added to each well following the instructions. After incubation at 37° C. for color reaction, the fluorescence value at Ex530/Em590 was detected using Tecan Spark™ 10M multimode microplate reader.
(§1) The well in which neither compound nor cytokine was added was designated as 00 control well, and the fluorescence value in the wells in which the final concentration of compound was 0 was designated as 100 control. The inhibition activity MC50 ofthe tested compound on JAK2 could be calculated from the inhibition rate ofthe tested compound on EPO-induced cell proliferation at different doses.

[2] = test system: IL-2-induced JAK1/JAK3 signal pathway; experiment: IL-2-induced proliferation of KHYG-1 cells (JAK1/JAK3 signal); assay type: cell-based, human; details: Homo sapiens; KHYG-1 cell proliferation, IL-2 10 ng/mL, 72 hours; read-out: Inhibition activity IC50 on IL-2-induced JAK1/JAK3 signal pathway
Text: The main physiological function of cytokine IL-2 is to stimulate and maintain the proliferation and differentiation of T cells. Generally, IL-2 dependent T cells cannot survive in in-vitro culture for a long time, but the addition of IL-2 can make them continue to proliferate. The signal pathway induced by IL-2 coupling with its receptor is mediated by JAK1/JAK3-STAT5, so the inhibitor of JAK1 and/or JAK3 can inhibit the proliferation of IL-2 dependent cells.
Human natural killer cell lymphoma cell line KHYG-1 was commercially available from Health Science Research Resources Bank (HSRRB), and relevant culture conditions referred to those from HSRRB.
The inhibition rate of the tested compound on IL-2-induced cell proliferation was calculated using Microsoft Excel.
After culture at 37° C. and 5% CO2 for 72 hours, alamarBlue™ Cell Viability Reagent was added to each well following the instructions.
as §1, with “0%” for “00”, “100%” for “100”, “[…] of the” for “MC50 ofthe”, “JAK1/JAK3” for “JAK2”, “of the” for “ofthe”, “IL-2-induced” for “EPO-induced”

SMILES | IC50 [1] | IC50 [2]
CONC(=O)c1cnc(NC(=O)C2CC2)cc1Nc1cccn(-c2nccs2)c1=O [Example 1, 6-(cyclopropylcarboxamido)-N-methoxy-4-((2-oxo-1-(thiazol-2-yl)-1,2-dihydropyridin-3-yl)amino)nicotinamide] | > 10 µM | > 10 µM
CONC(=O)c1cnc(NC(=O)C2CC2)cc1Nc1cccc(-c2nc3ccccc3n2C)c1OC [Example 3, 6-(cyclopropylcarboxamido)-N-methoxy-4-((2-methoxy-3-(1-methyl-1H-benzo[d]imidazol-2-yl)phenyl)amino)nicotinamide] | > 10 µM | > 10 µM
CONC(=O)c1cnc(Nc2cccnc2OC)cc1Nc1ccccc1N(C)S(C)(=O)=O [Example 5] | > 10 µM | > 10 µM
CONC(=O)c1cnc(NC(=O)C2CC2)cc1Nc1ccc(OC)cc1N(C)S(C)(=O)=O [Example 6, 6-(cyclopropylcarboxamido)-N-methoxy-4-((4-methoxy-2-(N-methylmethanesulfonamido)phenyl)amino)nicotinamide] | > 10 µM | > 10 µM
CONC(=O)c1cnc(NC(=O)C2CC2)cc1Nc1ccc(OC)nc1N(C)S(C)(=O)=O [Example 7, 6-(cyclopropylcarboxamido)-N-methoxy-4-((6-methoxy-2-(N-methylmethanesulfonamido)pyridin-3-yl)amino)nicotinamide] | > 10 µM | > 10 µM
CONC(=O)c1cnc(Nc2ccc(F)cn2)cc1Nc1ccc(OC)nc1N(C)S(C)(=O)=O [Example 8, 6-((5-fluoropyridin-2-yl)amino)-N-methoxy-4-((6-methoxy-2-(N-methylmethanesulfonamido)pyridin-3-yl)amino)nicotinamide] | > 10 µM | > 10 µM
CONC(=O)c1cnc(Nc2cccnc2OC)cc1Nc1ccc(OC)nc1N(C)S(C)(=O)=O [Example 9, N-methoxy-4-((6-methoxy-2-(N-methylmethanesulfonamido)pyridin-3-yl)amino)-6-((2-methoxypyridin-3-yl)amino)nicotinamide] | > 10 µM | > 10 µM
CONC(=O)c1cnc(Nc2cccc(F)n2)cc1Nc1ccc(C(F)(F)F)cc1N(C)S(C)(=O)=O [Example 11, 6-((6-fluoropyridin-2-yl)amino)-N-methoxy-4-((2-(N-methylmethanesulfonamido)-4-(trifluoromethyl)phenyl)amino)nicotinamide] | > 10 µM | > 10 µM
CONC(=O)c1cnc(Nc2ccc(F)cc2)cc1Nc1ccc(C2CC2)cc1N(C)S(C)(=O)=O [Example 15, 4-((4-cyclopropyl-2-(N-methylmethanesulfonamido)phenyl)amino)-6-((4-fluorophenyl)amino)-N-methoxy nicotinamide] | > 10 µM | > 10 µM
CONC(=O)c1cnc(Nc2ccc(F)cc2)cc1Nc1cccnc1N(C)S(C)(=O)=O [Example 17, 6-((4-fluorophenyl)amino)-N-methoxy-4-((2-(N-methylmethanesulfonamido)pyridin-3-yl)amino)nicotinamide] | > 10 µM | > 10 µM
CC(C)ONC(=O)c1cnc(Nc2cccc(F)n2)cc1Nc1ccc(C2CC2)cc1N(C)S(C)(=O)=O [Example 23, 4-((4-cyclopropyl-2-(N-methylmethanesulfonamido)phenyl)amino)-6-((6-fluoropyridin-2-yl)amino)-N-isopropoxy nicotinamide] | > 10 µM | > 10 µM
C#Cc1ccc(Nc2cc(Nc3cccc(F)n3)ncc2C(=O)NOC(C)C)c(N(C)S(C)(=O)=O)c1 [Example 24] | > 10 µM | > 10 µM
CCONC(=O)c1cnc(Nc2cc(C)nc(C)n2)cc1Nc1cccc(-c2cnn(C)c2)c1OC [Example 25, 6-((2,6-dimethylpyrimidin-4-yl)amino)-N-ethoxy-4-((2-methoxy-3-(1-methyl-1H-pyrazol-4-yl)phenyl)amino)nicotinamide] | > 10 µM | > 10 µM
N#CC[C@H](C1CCCC1)n1cc(-c2ncnc3[nH]ccc23)cn1 [ruxolitinib, reference compound] | < 0.1 µM | –
